Experimental data: patent US20240197650A1, “Combination of Cinnamaldheyde and Eugenol with Antimycotic Activity” (priority 2021, published 2024)

What was measured:
Assay type in all cases: cell-based
[1] = system: C. albicans; test: Microdilution method MIC/MFC, C. albicans strains
Experimental: (§1) A total of eighteen strains belonging to Candida spp. (15 C. albicans, 2 C. glabrata and 1 C. lusitaniae) derived from a collection of vaginal strains isolated in CHROMAgar Candida (BD Italia SpA, Milan, Italy) were grown on Potato Dextrose Agar (Oxoid Thermofisher SpA, Milan, Italy) at 35° C. for 24 hours.
(§2) The antifungal activity of amphotericin B and of cinnamaldheyde and eugenol were tested with the microdilution method as reported by Bona et al. [Bona et al., Sensitivity of Candida albicans to essential oils: are they an alternative to antifungal agents? J Appl Microbiol. 2016 December, 121(6): 1530-1545] with small changes. All the 18 Candida spp strains were tested. For each isolated, the colonies deriving from cultures (24 hours) in PDA were diluted in saline up to a concentration of 2×10^3 CFU/ml (so obtaining a final concentration of 10 3CGU/ml). Cinnamaldehyde and eugenol were dissolved in DMSO (80% oil, 20% DMSO), then diluted in Sabouraud broth up to a concentration of 8% v/v (so obtaining a final concentration of 4% v/v). Then, in a 96-well microtiter plate ½ serial dilution of amphotericin B (range 32-0.032 μg/ml, for a final range of 16-0.016 μg/ml) and of the essential oils (range 8-0.004% v/v, for a final range of 4-0.002% v/v) were carried out. Each well was then injected with 100 μl of cell suspension. The negative control contained DMSO diluted in Sabouraud broth (at 2% v/v, for a final concentration of 1% v/v). […] Each experiment was carried out in duplicate. The Minimum Inhibitory Concentration (MIC) was determined as the concentration of the oils in the first well which is not cloudy. The Minimum Fungicidal Concentration (MFC) was determined as the lowest concentration of the oils, with the agar culture showing the complete absence of fungal growth. The determination of the amphotericin B MIC was carried out also according to the EUCAST guidelines (cutoff 1 μg/ml) [https://eucast.org/astoffungi/clinicalbreakpointsforantifungals], all the results being consistent.

[2] = system: C. albicans; test: Disk diffusion method, C. albicans strains
Experimental: as §1
(§3) Colonies were re-suspended in sterile saline at a density corresponding to #0.5 McFarland (opacity standard). #0.5 McF correspond to 1.4×10^6 colony forming units (CFU)/ml for C. albicans, 4.3×10^6 CFU/ml for C. glabrata and 3×10^6 CFU/ml for C. lusitaniae [Guinea J. et al., Rapid antifungal susceptibility determination for yeast isolates by use of Etest performed directly on blood samples from patients with fungemia, J Clin Microbiol. 2010 June, 48(6): 2205-12]. Then, the sensitivity test vs the two oils has been performed. The disk diffusion method was carried out as follows: for each tested strain, 4 plates of Potato Dextrose Agar (PDA) were seeded in 3 directions to produce a confluent growth, by sterile swab soaked in the cell suspension. Sorbent paper disks (Oxoid Thermofisher SpA, Milan, Italy) 6.0 mm diameter were placed on the agar surface and added with 10 μl of each essential oil. Disks soaked with 10 μg amphotericin B were used as positive control. Also disks of chlortrimazole (from 10 μg to 40 μg) were used, but the inhibition rings could not be clearly read due to the formation of a re-growth ring. Disks soaked with 10 μl pure dimethylsulphoxide (DMSO, Sigma-Aldrich, St. Louis, MO, USA) were used as negative control. The plates were incubated at 35° C. for 24 hours. All the experiments were carried out in duplicate. The inhibiting effect of the oils were considered to be effective when the inhibition ring was equal or greater than that caused by amphotericin B. For amphotericin B, an inhibition zone (IZ)≥15 mm was considered as “sensitivity”, from 10 to 14 mm as “intermediate sensitivity” and <10 mm as “resistance” [Kauser et al., Agreement of Direct Antifungal Susceptibility Testing from Positive Blood Culture Bottles with Conventional Method for Candida Species, J Clin Microbiol. 2016 February, 54(2):343-34].

[3] = system: C. lusitaniae; test: Microdilution method MIC/MFC, C. lusitaniae strain; conditions: C. lusitaniae 1
Experimental: as §1, §2

[4] = system: C. lusitaniae; test: Disk diffusion method, C. lusitaniae strain; conditions: C. lusitaniae 1
Experimental: as §1
Colonies were re-suspended in sterile saline at a density corresponding to #0.5 McFarland (opacity standard). #0.5 McF correspond to 1.4×10^6 colony forming units (CFU)/ml for C. albicans, 4.3×10^6 CFU/ml for C. glabrata and 3×10^6 CFU/ml for C. lusitaniae [Guinea J. et al., Rapid antifungal susceptibility determination for yeast isolates by use of Etest performed directly on blood samples from patients with fungemia, J Clin Microbiol. 2010 June, 48(6): 2205-12]. Then, the sensitivity test vs the two oils has been performed. The disk diffusion method was carried out as follows: for each tested strain, 4 plates of Potato Dextrose Agar (PDA) were seeded in 3 directions to produce a confluent growth, by sterile swab soaked in the cell suspension. Sorbent paper disks (Oxoid Thermofisher SpA, Milan, Italy) 6.0 mm diameter were placed on the agar surface and added with 10 μl of each essential oil. Disks soaked with 10 μg amphotericin B were used as positive control. Also disks of chlortrimazole (from 10 μg to 40 μg) were used, but the inhibition rings could not be clearly read due to the formation of a re-growth ring. Disks soaked with 10 μl pure dimethylsulphoxide (DMSO, Sigma-Aldrich, St. Louis, MO, USA) were used as negative control. The plates were incubated at 35° C. for 24 hours. All the experiments were carried out in duplicate. […]

[5] = system: Candida spp.; test: Microdilution method MIC/MFC, 18 Candida spp. strains (distribution); conditions: 18 strains
Experimental: as §1, §2

[6] = system: Candida spp.; test: Disk diffusion method, 18 Candida spp. strains (distribution)
Experimental: as §1, §3

[7] = system: C. glabrata; test: Microdilution method MIC/MFC, C. glabrata strains
Experimental: as §1, §2

[8] = 18 strains, disk 10 μl oil or 10 μg amphotericin B, 35° C. 24 hours
[9] = disks soaked with the oils separately

**Q.** How did the MFC ([1]; C. albicans 1) turn out when `O=CC=Cc1ccccc1` [Cinnamaldheyde, cinnamaldehyde] was run?
**A.** 0.008 % v/v

**Q.** What about the MIC ([1]; C. albicans 1) of the same molecule?
**A.** 0.004 % v/v

**Q.** And the MFC ([1]; C. albicans 2)?
**A.** 0.008 % v/v

**Q.** And the MIC ([1]; C. albicans 2)?
**A.** 0.004 % v/v

**Q.** What about the MFC ([1]; C. albicans 3) of the same molecule?
**A.** 0.004 % v/v

**Q.** What about the MIC ([1]; C. albicans 3) of the same molecule?
**A.** 0.004 % v/v

**Q.** What about the MFC ([1]; C. albicans 4) of the same molecule?
**A.** 0.008 % v/v

**Q.** And the MIC ([1]; C. albicans 4)?
**A.** ≤0.002 % v/v

**Q.** And the MFC ([1]; C. albicans 5)?
**A.** 0.004 % v/v

**Q.** What about the MIC ([1]; C. albicans 5) of the same molecule?
**A.** 0.004 % v/v

**Q.** And the MFC ([1]; C. albicans 6)?
**A.** 0.008 % v/v

**Q.** What about the MIC ([1]; C. albicans 6) of the same molecule?
**A.** 0.004 % v/v

**Q.** And the MFC ([1]; C. albicans 7)?
**A.** 0.008 % v/v

**Q.** And the MIC ([1]; C. albicans 7)?
**A.** ≤0.002 % v/v

**Q.** And the MFC ([1]; C. albicans 8)?
**A.** 0.008 % v/v

**Q.** And the MIC ([1]; C. albicans 8)?
**A.** 0.004 % v/v

**Q.** What about the MFC ([1]; C. albicans 9) of the same molecule?
**A.** 0.064 % v/v

**Q.** What about the MIC ([1]; C. albicans 9) of the same molecule?
**A.** 0.016 % v/v

**Q.** What about the MFC ([1]; C. albicans 10) of the same molecule?
**A.** ≤0.002 % v/v

**Q.** And the MIC ([1]; C. albicans 10)?
**A.** ≤0.002 % v/v

**Q.** What about the MFC ([1]; C. albicans 11) of the same molecule?
**A.** ≤0.002 % v/v

**Q.** And the MIC ([1]; C. albicans 11)?
**A.** ≤0.002 % v/v

**Q.** And the MFC ([1]; C. albicans 12)?
**A.** ≤0.002 % v/v

**Q.** What about the MIC ([1]; C. albicans 12) of the same molecule?
**A.** ≤0.002 % v/v

**Q.** And the MFC ([1]; C. albicans 13)?
**A.** 0.016 % v/v

**Q.** And the MIC ([1]; C. albicans 13)?
**A.** 0.008 % v/v

**Q.** And the MFC ([1]; C. albicans 14)?
**A.** 0.016 % v/v

**Q.** And the MIC ([1]; C. albicans 14)?
**A.** 0.004 % v/v

**Q.** What about the MFC ([1]; C. albicans 15) of the same molecule?
**A.** 0.008 % v/v

**Q.** And the MIC ([1]; C. albicans 15)?
**A.** 0.004 % v/v

**Q.** And the “Diameters of the inhibition rings (including 6.0 mm of the disk)” value (“Diameters of the inhibition rings” for short) ([2]; C. albicans 1)?
**A.** 65.0 mm

**Q.** And the “Diameters of the inhibition rings” value ([2]; C. albicans 2)?
**A.** 70.0 mm

**Q.** What about the “Diameters of the inhibition rings” value ([2]; C. albicans 3) of the same molecule?
**A.** 67.0 mm

**Q.** And the “Diameters of the inhibition rings” value ([2]; C. albicans 4)?
**A.** 66.0 mm

**Q.** What about the “Diameters of the inhibition rings” value ([2]; C. albicans 5) of the same molecule?
**A.** 71.0 mm

**Q.** What about the “Diameters of the inhibition rings” value ([2]; C. albicans 6) of the same molecule?
**A.** 67.0 mm

**Q.** What about the “Diameters of the inhibition rings” value ([2]; C. albicans 7) of the same molecule?
**A.** 75.0 mm

**Q.** And the “Diameters of the inhibition rings” value ([2]; C. albicans 8)?
**A.** 67.0 mm

**Q.** What about the “Diameters of the inhibition rings” value ([2]; C. albicans 9) of the same molecule?
**A.** 70.5 mm

**Q.** And the “Diameters of the inhibition rings” value ([2]; C. albicans 10)?
**A.** 72.5 mm

**Q.** What about the “Diameters of the inhibition rings” value ([2]; C. albicans 11) of the same molecule?
**A.** 75.0 mm

**Q.** What about the “Diameters of the inhibition rings” value ([2]; C. albicans 12) of the same molecule?
**A.** 75.0 mm

**Q.** And the “Diameters of the inhibition rings” value ([2]; C. albicans 13)?
**A.** 71.0 mm

**Q.** What about the “Diameters of the inhibition rings” value ([2]; C. albicans 14) of the same molecule?
**A.** 75.0 mm

**Q.** What about the “Diameters of the inhibition rings” value ([2]; C. albicans 15) of the same molecule?
**A.** 70.0 mm

**Q.** What about the MFC [3] of the same molecule?
**A.** ≤0.002 % v/v

**Q.** And the MIC [3]?
**A.** ≤0.002 % v/v

**Q.** What about the “Diameters of the inhibition rings” value [4] of the same molecule?
**A.** 75.0 mm

**Q.** And the MFC average [5]?
**A.** 0.01 % v/v

**Q.** What about the MIC average [5] of the same molecule?
**A.** 0.0048 % v/v

**Q.** What about the “inhibition rings diameter, average (including 6.0 mm of the disk)” value [6, 8] of the same molecule?
**A.** 69 mm

**Q.** And the “inhibition rings diameter, range (including 6.0 mm of the disk)” value [6, 8]?
**A.** 55-75 mm

**Q.** And the “inhibition of the tested Candida strains (words)” value [6, 9]?
**A.** inhibited all tested strains

**Q.** And the “inhibition rings compared with those caused by amphotericin B (10 μg)” value [6, 9]?
**A.** notably greater

**Q.** What about the “inhibition of the tested Candida strains (words)” value ([6]; disks soaked with the oils separately, listed as cinnamaldheyde) of the same molecule?
**A.** inhibited the growth of all tested Candida strains

**Q.** What about the “% inhibited strains” value ([6]; ring equal or greater than that of amphotericin B, 18 strains) of the same molecule?
**A.** 100% (18/18)

**Q.** What about the MFC ([7]; C. glabrata 1) of the same molecule?
**A.** 0.008 % v/v

**Q.** What about the MIC ([7]; C. glabrata 1) of the same molecule?
**A.** 0.004 % v/v

**Q.** And the MFC ([7]; C. glabrata 2)?
**A.** 0.016 % v/v

**Q.** And the MIC ([7]; C. glabrata 2)?
**A.** 0.016 % v/v
